This note sets out measurements from US9365851B2, “Spalt-like transcription factor 4 (SALL4) and uses thereof” (National University of Singapore, priority 2011, dated 2016).

“Also recorded” adds a separate entry of the source.

Data set [1] concerns PTEN/AKT pathway. Kind of data set: PTEN/AKT pathway expression in SNU-398 cells after treatment (Western blot, mRNA). The conditions noted are these: for PTEN protein expression / phosphorylated AKT (pAKT) level: SNU-398, Western blot. Type of data set: cell-based, human. From the text:
The induction of Pten expression was not affected when wt peptide was administrated together with a Pten inhibitor. AKT, a molecule with levels of phosphorylation controlled by the expression of Pten was affected by the wt peptide addition accordingly. […] The effect of wt peptide on pAKT was abrogated by the Pten inhibitor. […] In contrast, the protein expression level of endogenous Pten was very high in the none-SALL4 expressing SNU387 cells.
Then tested was whether this peptide could reverse the repressive effect of SALL4 on its target genes. The focus was onPTEN, since it is implicated in SALL4-mediated leukemogenesis (Yang et al., Blood, 112:805-813 (2008); Lu et al., PLoS One, 4:e5577 (2009)). In addition, it was previously reported that SALL4 could specifically bind to the PTEN promoter region in a chromatin immunoprecipitation (ChIP) assay (Lu et al., PLoS One, 4:e5577 (2009)). When SALL4 was overexpressed in 293T cells, an enrichment of SALL4 as well as decreased H3 acetylation at this binding site was observed, which correlated with decreased PTEN RNA expression (Lu et al., PLoS One, 4:e5577 (2009))). Therefore, it was hypothesized that SALL4 could recruit the HDAC/NuRD complex to repress PTEN, and that the wild type peptide would compete with endogenous SALL4 in recruiting the HDAC/NuRD complex to the PTEN promoter, and release the repression effect of SALL4 on PTEN. Furthermore, this model would predict that wild type peptide treatment of SALL4-expressing cells would lead to increased epigenetic markers of gene activation, such as H3 acetylation, at the PTEN promoter binding site, as well as an increase in PTEN expression. To test this possibility, SNU-398 cells were treated with scrambled or wild type peptide and subsequently evaluated for PTEN expression and H3 acetylation at the SALL4 binding site at the PTEN promoter region. […] Therefore, the results herein are compatible with the model that SALL4 recruits HDACs to repress PTEN expression, and blocking the SALL4-HDAC interaction with the wild type peptide results in increased expression of PTEN.
To confirm the involvement of PTEN tumor suppressor in SALL4 peptide-induced reduction of number of viable HCC cells, PTEN expression was analyzed by western blot upon drug treatment. […] Whether the increase in PTEN expression upon SALL4 peptide treatment has an effect in PI3K signalling by dephosphorylating AKT was examined.
To confirm the involvement of the PTEN tumor suppressor in the SALL4 peptide-induced reduction of HCC cell viability, PTEN expression was analyzed by western blot upon drug treatment. […] If the increase in PTEN expression has an effect in PI3K signaling was next examined. PTEN functions as a phosphatase to dephosphorylate AKT.
A general note: A western blot detects proteins with antibodies after separation by electrophoresis.

For data set [2], the system named is SNU-398 cells. Nature of the data set: Cell viability assay (MTT/MTS). The conditions noted are these: for cell viability / number of viable cells: SNU-398 (high SALL4), 72 h; for cell viability upon SALL4 knockdown: SNU-398, MTS. The data set is classed as cell-based, human. As to the method: Cell viability was determined 72 hours after peptide treatments. Absorbance at 490 nm is directly correlated to cell viability. Wild type functional SALL4 peptide (wt), mutant non-functional SALL4 peptide (Mut.), trichostatin A (TSA), scrambled control peptide (Scr.), wild type peptide+PTEN inhibitor SF1670 (wt+Inh.) were given to the cells at the indicated concentration. PTEN inhibitor concentration was 400 nM. (31C, 31D) Western blot analyses of the effects of peptides on PTEN, AKT, and pAKT expression on SNU-398 (31C) and SNU-387 (31D) cells 72 hours following peptide treatments. 20 μM of wt or Scr. peptide or 100 nM of TSA was used. PTEN inhibitor concentration was 400 nM. (31E) Representative images show NOD/SCID mice transplanted with Scr peptide- and wt peptide-treated SNU-398 cells (left) and the dissected subcutaneous tumors (right). Arrow indicates subcutaneous tumor. (31F) Growth curve of subcutaneous tumors (left panel) and tumor weight of tumors dissected at day 26 post-transplantation (right panel). Results are mean±s.d. n=5; * P<0.05. (31G) Representative images show NOD/SCID mice transplanted with 3 million SNU-398 cells at the left flank and treated intraperitoneally for five consecutive days with 56 mg/kg body weight TAT-Mut. peptide or 60 mg/kg body weight wt peptide (top panel) and the dissected subcutaneous tumors (bottom). (31H) Tumor weight of tumors dissected at day 18 post-transplantation and post-treatment of mice treated intraperitoneally with TAT fusion peptides as described in 5 g. Results are mean±s.d. n=5; * P<0.05.
Cell viability assay (MTT) (Invitrogen) was performed according to the manufacturer's instructions. Briefly—10000 cells were seeded in 100 ul medium in 96 well plates. The next day cells were treated as indicated on the figures. At the designated time after the treatment 20 ul of 5 mg/ml MTT solution was added to each well. After 3.5 h incubation at 37 C the medium was removed and the reaction was terminated with a solution of 4 mM HCl, 0.1% Nondet P-40 (NP40) all in isopropanol in dark on orbital shaker for […]. at room temperature. The absorbance was read at 590 nm with a reference filter of 620 nm in Spectromax M3 (ABI) spectrophotometer.
Multiple leukemic and solid tumor cancer cell lines with high or low/no SALL4 expression (FIG. 10A) were chosen to test the biological effect(s) of the wild type peptide. Wild type or scrambled peptide was delivered into tumor cells at various concentrations, and their effects on cells were evaluated 72 hours post-treatment by the MTS cell viability assay. […] The effect of wild type peptide is SALL4-specific, as it had no effect on KBM5, an AML cell line with undetectable endogenous SALL4 expression. We were surprised to see that the wild type peptide had no effect on a high SALL4-expressing endometrioid cancer cell line, AN3CA. This prompted checking whether PTEN, a gene repressed by SALL4 through its interaction with NuRD 27, was present in this cell line. According to the model herein, the function of wild type peptide requires both the expression of SALL4 and intact SALL4 downstream target genes, such as PTEN. In tumor cells with PTEN deletion, even though wild type peptide could compete with endogenous SALL4 in interacting with the HDAC complex, an anti-proliferative effect might not be observed. Therefore, expression of PTEN was evaluated in AN3CA cells along with other cell lines. While PTEN protein was present in all the other cell lines, it was absent in AN3CA cells (FIG. 10C), with reported deletion mutation of the gene in this cell line 40,41. […] Furthermore, the anti-proliferative effect also required certain downstream targets, such as PTEN.
7000 cells were seeded in each wells of a microtiter plate in 100 μL of complete medium. Cells from each treatment were seeded in duplicate. Controls using the same medium without cells were set up in parallel. […]

As for `CC(/C=C/C(=O)NO)=C\[C@@H](C)C(=O)c1ccc(N(C)C)cc1` [TSA, Trichostatin A, reference compound], in data set [1], the PTEN protein expression entry is listed as “also induced PTEN expression; also recorded: also induced PTEN upregulation” and the “phosphorylated AKT (pAKT) level” value is given as “significantly reduced”. Further, in data set [1] (listed as Trichostatin A), the PTEN protein expression result is “levels of PTEN were elevated”. The “cell viability / number of viable cells” value in data set [2] is “effectively induced reduction in the number of viable HCC cells”.
For the compound “CTATTTAGCCAAAGGCAAA (short hairpin RNA, chemistry and delivery not given here, further chemistry not given here) [E5 shRNA]”, the “cell viability upon SALL4 knockdown” value was “number of viable cells decreased” in data set [2] and “decreased cell viability” in data set [2] (listed as E5).
As to “H-MSRRKQAKPQHI-OH [wt peptide, MSRRKQAKPQHI]”, the “Pten mRNA expression” value in data set [1] (SNU-398) is listed as “increased Pten mRNA expression level”. The “elevation of PTEN expression level” value in data set [1] (SNU-398, 24 h, relative to alfa-tubulin) was “More than 2 times”. Further, the PTEN protein expression result was “noticeably higher” in data set [1]; “extensive increase in PTEN protein” in data set [1] (listed as SALL4 peptide); “extensive increased in PTEN expression” in data set [1] (listed as SALL4 peptide (wt)); “increased PTEN protein” in data set [1] (listed as Wild type peptide); “increased PTEN expression” in data set [1] (listed as wild type peptide). Also, the figures for the “phosphorylated AKT (pAKT) level” value in data set [1] (listed as SALL4 peptide) and in data set [1] (listed as wt) were “significant reduction of pAKT level; also recorded: marked reduction of phospho AKT protein levels” and “significantly reduced”, respectively. Besides, the “cell viability / number of viable cells” value in data set [2] was “decreased cell viability; also recorded: reduced the amount of living cells in dose dependent manner”; in data set [2] (listed as SALL4 peptide (wt)), “the number of viable cells was reduced”; in data set [2] (listed as wild type peptide) it was “decreased cell viability”.
With “Scr peptide: same 12 amino acids as the wt peptide, but in a scrambled sequence; negative control (SRMRQKIHPKIQ) [reference compound]”, the PTEN protein expression entry in data set [1] is recorded as “an effect not observed”; in data set [1] (listed as scrambled (mutant) peptide), “does not exhibit the same properties”; in data set [1] (listed as scrambled peptide), “not observed”. In addition, the “phosphorylated AKT (pAKT) level” value in data set [1] is given as “No effect”. For the same compound, the “cell viability / number of viable cells” value in data set [2] is on record as “remained unaffected”.
